Reference: PubChem BioAssay AID330 (DTP/NCI, 2004)
“And” between values parts separate entries of the source, which are not always exact repeats. Equal values may be shown once. Toxic doses and inconclusive results are not listed. The calls were made as follows: active = survival T/C of 150% or more; inactive = T/C below 125% in these data.

Test system: P388 leukemia ip, CD2F1 mice, survival T/C
Test: NCI In Vivo Anticancer Drug Screen. Data for tumor model P388 Leukemia (intraperitoneal) in CD2F1 (CDF1) mice
Settings: endpoint: median survival time, higher = longer survival
Summary of the method: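 Mice carrying the transplanted tumor received test compound or vehicle. Survival was recorded in each group, and the value is the treated-group measurement divided by that of the vehicle-treated control group.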

[1] = dose: 50.0 mg/kg/injection, schedule: Q01DX009 (ip), vehicle: saline
[2] = dose: 100.0 mg/kg/injection, schedule: Q01DX009 (ip), vehicle: saline
[3] = dose: 200.0 mg/kg/injection, schedule: Q01DX009 (ip), vehicle: saline
[4] = dose: 50.0 mg/kg/injection, schedule: Q01DX005 (ip), vehicle: saline with Tween-80
[5] = dose: 100.0 mg/kg/injection, schedule: Q01DX005 (ip), vehicle: saline with Tween-80
[6] = dose: 200.0 mg/kg/injection, schedule: Q01DX005 (ip), vehicle: saline with Tween-80
[7] = dose: 50.0 mg/kg/injection, schedule: Q01DX009 (ip), vehicle: saline with Tween-80
[8] = dose: 100.0 mg/kg/injection, schedule: Q01DX009 (ip), vehicle: saline with Tween-80
[9] = dose: 200.0 mg/kg/injection, schedule: Q01DX009 (ip), vehicle: saline with Tween-80
[10] = dose: 60.0 mg/kg/injection, schedule: Q01DX005 (ip), vehicle: Klucel (hydroxypropylcellulose) (HPC)
[11] = dose: 120.0 mg/kg/injection, schedule: Q01DX005 (ip), vehicle: Klucel (hydroxypropylcellulose) (HPC)
[12] = dose: 240.0 mg/kg/injection, schedule: Q01DX005 (ip), vehicle: Klucel (hydroxypropylcellulose) (HPC)
[13] = dose: 60.0 mg/kg/injection, schedule: Q01DX005 (ip), vehicle: saline
[14] = dose: 60.0 mg/kg/injection, schedule: Q01DX005 (ip), vehicle: saline with Tween-80
[15] = dose: 120.0 mg/kg/injection, schedule: Q01DX005 (ip), vehicle: saline with Tween-80
[16] = dose: 240.0 mg/kg/injection, schedule: Q01DX005 (ip), vehicle: saline with Tween-80
[17] = dose: 100.0 mg/kg/injection, schedule: Q04DX002 (ip), vehicle: saline with Tween-80
[18] = dose: 200.0 mg/kg/injection, schedule: Q04DX002 (ip), vehicle: saline with Tween-80
[19] = dose: 400.0 mg/kg/injection, schedule: Q04DX002 (ip), vehicle: saline with Tween-80

Measured: T/C

C/C=C1/CN2C3C[C@H]1C(CO)(C(=O)OC)[C@H]2Cc1c3n(C)c2ccccc12 (stereo partly drawn)
inactive: dose: 10.0 mg/kg/injection, schedule: Q01DX009 (ip), vehicle: Klucel (hydroxypropylcellulose) (HPC) 100 % of control | dose: 20.0 mg/kg/injection, schedule: Q01DX009 (ip), vehicle: Klucel (hydroxypropylcellulose) (HPC) 101 % of control | dose: 40.0 mg/kg/injection, schedule: Q01DX009 (ip), vehicle: Klucel (hydroxypropylcellulose) (HPC) 104 % of control | dose: 80.0 mg/kg/injection, schedule: Q01DX009 (ip), vehicle: Klucel (hydroxypropylcellulose) (HPC) 100 % of control | dose: 160.0 mg/kg/injection, schedule: Q01DX009 (ip), vehicle: Klucel (hydroxypropylcellulose) (HPC) 94 % of control

CCc1cccc(CC)c1N1C(=O)c2cccnc2C1=O
inactive: [1] 100 % of control | [2] 97 % of control | [3] 93 % of control

CN(/N=C1\C(=O)Nc2ccccc21)c1ccccc1
inactive: [4] 95 % of control | [5] 93 % of control | [6] 88 % of control

CCOC(=O)c1ccc(NC(=S)NC(=O)c2ccco2)o1
inactive: [7] 92 % of control | [8] 100 % of control | [9] 92 % of control

CCCCOC(=O)N(CCF)N=O
inactive: dose: 3.12 mg/kg/injection, schedule: Q01DX001 (ip), vehicle: saline with Tween-80 109 % of control | dose: 6.25 mg/kg/injection, schedule: Q01DX001 (ip), vehicle: saline with Tween-80 118 % of control and 119 % of control | dose: 12.5 mg/kg/injection, schedule: Q01DX001 (ip), vehicle: saline with Tween-80 118 % of control and 119 % of control

Cl[C](Cl)(Cl)[Hg][c]1ccccc1
inactive: dose: 1.5 mg/kg/injection, schedule: Q01DX009 (ip), vehicle: saline with Tween-80 98 % of control | dose: 3.0 mg/kg/injection, schedule: Q01DX009 (ip), vehicle: saline with Tween-80 99 % of control | dose: 6.0 mg/kg/injection, schedule: Q01DX009 (ip), vehicle: saline with Tween-80 114 % of control | dose: 12.0 mg/kg/injection, schedule: Q01DX009 (ip), vehicle: saline with Tween-80 89 % of control

C(=Nc1cnc2ccccc2c1)c1ccnc2ccccc12
inactive: dose: 12.5 mg/kg/injection, schedule: Q01DX009 (ip), vehicle: saline with Tween-80 98 % of control | dose: 12.5 mg/kg/injection, schedule: Q04DX003 (ip), vehicle: saline with Tween-80 107 % of control | dose: 25.0 mg/kg/injection, schedule: Q01DX009 (ip), vehicle: saline with Tween-80 98 % of control | dose: 25.0 mg/kg/injection, schedule: Q04DX003 (ip), vehicle: saline with Tween-80 96 % of control | [7] 101 % of control | dose: 50.0 mg/kg/injection, schedule: Q04DX003 (ip), vehicle: saline with Tween-80 114 % of control | [8] 96 % of control | dose: 100.0 mg/kg/injection, schedule: Q04DX003 (ip), vehicle: saline with Tween-80 99 % of control

O=C(COc1ccc(Cl)cc1Cl)Nc1ccc(S(=O)(=O)O)cc1
inactive: [10] 104 % of control | [11] 104 % of control | [12] 98 % of control

COc1cccc(N=Nc2c(C)nn(C(=S)S)c2C)c1
inactive: [4] 101 % of control | [5] 100 % of control | [6] 94 % of control

O=C(Nc1cccc(C(=O)Nc2ccc(S(=O)(=O)O)c3cc(S(=O)(=O)O)cc(S(=O)(=O)O)c23)c1)Nc1cccc(C(=O)Nc2cccc3c(S(=O)(=O)O)c(S(=O)(=O)O)cc(S(=O)(=O)O)c23)c1
inactive: [13] 88 % of control | dose: 120.0 mg/kg/injection, schedule: Q01DX005 (ip), vehicle: saline 99 % of control | dose: 240.0 mg/kg/injection, schedule: Q01DX005 (ip), vehicle: saline 93 % of control

Oc1ccccc1C=Nc1ccc(Cl)cn1
inactive: [1] 99 % of control | [2] 100 % of control | [3] 107 % of control

[O-]/[N+]1=[N+](\[O-])c2ccccc2COCc2ccccc21
inactive: [14] 96 % of control | [15] 93 % of control | [16] 89 % of control

CNC(=O)Oc1[nH]c(=O)ncc1I
inactive: dose: 50.0 mg/kg/injection, schedule: Q04DX002 (ip), vehicle: saline with Tween-80 100 % of control | [17] 108 % of control and 109 % of control and 110 % of control | [18] 105 % of control and 116 % of control

CCOC(=O)c1cnc2c(c(Br)cc3c4cc(Br)ccc4[nH]c32)c1Cl
inactive: dose: 6.25 mg/kg/injection, schedule: Q01DX009 (ip), vehicle: saline 112 % of control | dose: 12.5 mg/kg/injection, schedule: Q01DX009 (ip), vehicle: saline 107 % of control | dose: 25.0 mg/kg/injection, schedule: Q01DX009 (ip), vehicle: saline 111 % of control | [1] 97 % of control | [2] 91 % of control | [3] 88 % of control

Br[CH](Br)[Hg][c]1ccccc1
inactive: dose: 100.0 mg/kg/injection, schedule: Q01DX001 (ip), vehicle: Klucel (hydroxypropylcellulose) (HPC) 93 % of control | dose: 200.0 mg/kg/injection, schedule: Q01DX001 (ip), vehicle: Klucel (hydroxypropylcellulose) (HPC) 96 % of control

O=S1(=O)c2cccc(c2)NC(=S)/C([n+]2ccccc2)=C(/[O-])c2ccc(cc2)CC2CCCCN21 (stereo not drawn)
inactive: dose: 50.0 mg/kg/injection, schedule: Q01DX005 (ip), vehicle: Klucel (hydroxypropylcellulose) (HPC) 94 % of control | dose: 100.0 mg/kg/injection, schedule: Q01DX005 (ip), vehicle: Klucel (hydroxypropylcellulose) (HPC) 87 % of control

CSc1nc(N)c(NS(=O)(=O)c2cccc([N+](=O)[O-])c2)c(=O)[nH]1
inactive: [10] 92 % of control | [11] 94 % of control | [12] 88 % of control

COc1ccc(/C=N/Nc2nnc3c4ccccc4n(C)c3n2)cc1
inactive: dose: 100.0 mg/kg/injection, schedule: Q01DX001 (ip), vehicle: saline with Tween-80 89 % of control | dose: 200.0 mg/kg/injection, schedule: Q01DX001 (ip), vehicle: saline with Tween-80 91 % of control | dose: 400.0 mg/kg/injection, schedule: Q01DX001 (ip), vehicle: saline with Tween-80 107 % of control

C=C1C(=O)OC2(C)C3CCC(C3)C12 (stereo not drawn)
inactive: [1] 96 % of control | [2] 113 % of control

CCC(Oc1c2ccoc2c(OC)c2oc(=O)cc(O)c12)C(=O)O (stereo not drawn)
inactive: [4] 108 % of control | [5] 95 % of control | [6] 100 % of control

COc1ccc(Cc2coc3ccccc3c2=O)cc1
inactive: [14] 102 % of control | [15] 92 % of control | [16] 100 % of control

O=C(CCc1ccc(O)c(O)c1)c1ccc(O)c(O)c1O
inactive: dose: 4.0 mg/kg/injection, schedule: Q01DX009 (ip), vehicle: saline 111 % of control | dose: 8.0 mg/kg/injection, schedule: Q01DX009 (ip), vehicle: saline 104 % of control | dose: 16.0 mg/kg/injection, schedule: Q01DX009 (ip), vehicle: saline 102 % of control | dose: 32.0 mg/kg/injection, schedule: Q01DX009 (ip), vehicle: saline 114 % of control

CC(N)=S=O
inactive: dose: 15.0 mg/kg/injection, schedule: Q01DX005 (ip), vehicle: saline 112 % of control | dose: 30.0 mg/kg/injection, schedule: Q01DX005 (ip), vehicle: saline 103 % of control | [13] 106 % of control and 94 % of control

O=C(/C(O)=C/c1ccccc1)c1ccccc1
inactive: [17] 93 % of control | [18] 92 % of control | [19] 92 % of control

O=C1COC(c2ccccc2O)=NN1CCN1CCOCC1
inactive: [7] 103 % of control | [8] 103 % of control | [9] 94 % of control

COc1cc(O)ccc1/C=C/C(=O)c1ccc(OC2OC(CO)C(O)C(O)C2O)cc1 (stereo not drawn)
inactive: [17] 98 % of control | [18] 105 % of control | [19] 108 % of control

Oc1ccc2ccccc2c1/C=C/c1ccc2c(Br)cc(Br)c(O)c2n1
inactive: [4] 99 % of control | [5] 106 % of control | [6] 88 % of control

C[Si](C)(C)C#CC(OS(=O)(=O)C(F)(F)F)=C(c1ccccc1)c1ccccc1
inactive: [4] 98 % of control | [5] 99 % of control | [6] 92 % of control
